PMC5354814, “In silico and in vitro drug screening identifies new therapeutic approaches for Ewing sarcoma” (Oncotarget, 2016)
Entries after “also recorded” stand apart in the source; their conditions may differ. Like-named read-outs stand apart in the source and are kept apart here.

Experiments:
human monocytes = test system: human monocytes; design: method as in ref 19 (a number printed in a supplementary file, which may have a reference list of its own: not looked up in the article's list); conditions: 0.125 µg auranofin/mL; cited from earlier work
[1] = design: method as in ref 19 (a number printed in a supplementary file, which may have a reference list of its own: not looked up in the article's list); conditions: dogs, 0.6 - 1.2 mg auranofin/kg p.o.; cited from earlier work
[2] = design: method as in ref 19 (a number printed in a supplementary file, which may have a reference list of its own: not looked up in the article's list); conditions: 2.5 µg/mL; cited from earlier work
human monocyte = test system: human monocyte; design: method as in ref 19 (a number printed in a supplementary file, which may have a reference list of its own: not looked up in the article's list); conditions: 0.1 - 1.0 µg auranofin/mL; cited from earlier work
natural killer cells = test system: natural killer cells; design: method as in ref 19 (a number printed in a supplementary file, which may have a reference list of its own: not looked up in the article's list); conditions: cited from earlier work
[3] = design: method as in ref 19 (a number printed in a supplementary file, which may have a reference list of its own: not looked up in the article's list); conditions: 0.625 - 10 mg gold/kg p.o.; cited from earlier work
[4] = cited from earlier work; for tumors of the renal tubular epithelium: 12-month study, rats
[5] = Dissociation of auranofin in plasma, whole blood and simulated gastric fluid; type: in vitro ADME; conditions: unpublished results
Rhesus monkey skin = test system: Rhesus monkey skin; design: method as in ref 19 (a number printed in a supplementary file, which may have a reference list of its own: not looked up in the article's list); conditions: 1.5 x 10^-4M; cited from earlier work
[6] = design: method as in ref 19 (a number printed in a supplementary file, which may have a reference list of its own: not looked up in the article's list); conditions: cited from earlier work
Salmonella = test system: Salmonella; design: method as in ref 18, ref 19; conditions: cited from earlier work
[7] = cited from earlier work
BALB/3T3 cell = test system: BALB/3T3 cell; design: method as in ref 18, ref 19; conditions: cited from earlier work
[8] = cited from earlier work; remark: listed apart in the source
[9] = cited from earlier work; remark: listed apart in the source
[10] = cited from earlier work; remark: listed apart in the source
Hs 919.T. = assay: Hits validation, dose-response cell proliferation (CellTiter-Glo); type: cell-based; conditions: control cell line, 12-point dose-response, mean ± SD
Procedure, shortened: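 Read-out is CellTiter-Glo luminescence, from which IC50 values were calculated for each drug. Wells held 750–1,500 cells plated the day before treatment, with drug concentrations spanning 1 nmol/L to 50 μmol/L and vehicle controls included.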

[11] = test system: human neutrophil and monocyte; design: method as in ref 19 (a number printed in a supplementary file, which may have a reference list of its own: not looked up in the article's list); conditions: 0.1 - 1.0 µg auranofin/mL; cited from earlier work
human lymphocytes = test system: human lymphocytes; design: method as in ref 19 (a number printed in a supplementary file, which may have a reference list of its own: not looked up in the article's list); conditions: 1.25 µg auranofin/mL; cited from earlier work
rat lung = test system: rat lung; design: method as in ref 19 (a number printed in a supplementary file, which may have a reference list of its own: not looked up in the article's list); conditions: 1.5 x 10^-4M; cited from earlier work
[12] = after 6 months of auranofin 3 mg BID

CC(=O)OC[C@H]1O[C@@H]([S-])[C@H](OC(C)=O)[C@@H](OC(C)=O)[C@@H]1OC(C)=O.CCP(CC)CC.[Au+] [Auranofin, auranofin]
ADCC of human monocytes (human monocytes): reduced | antidiuretic effect [1]: not in dogs | pokeweed mitogen-induced immunoglobulin production [2]: inhibited | phagocytosis (human monocyte): inhibited | activity of natural killer cells (natural killer cells; high concentrations, 1.0 - 2.5 µg auranofin/mL): inhibited | activity of natural killer cells (natural killer cells; low concentrations, 0.125 - 0.5 µg auranofin/mL): stimulated | suboptimal delayed hypersensitivity response [3]: stimulatory effect | tumors of the renal tubular epithelium ([4]; 3.6 mg/kg/day): did not | tumors of the renal tubular epithelium ([4]; 23 mg/kg/day): tum ors of the renal tubular epithelium; also recorded: developed adenomas of the renal tubular epithelium | frequency of renal tubular cell karyomegaly and cytomegaly and renal adenoma ([4]; 24-month study in rats, auranofin 1.0 or 2.5 mg/kg/day orally, gold sodium thiomalate 2 or 6 mg/kg twice weekly): significant incr ease | stability in plasma and whole blood ex vivo and simulated gastric fluid in vitro [5]: immediately and completely dissociates | histamine release (Rhesus monkey skin): inhibition | tissue gold concentration ([6]; rat tissues): highest in the kidneys | absorption after oral dosing ([6]; rat): 19% | blood gold in plasma proteins ([6]; rat): 35% | blood gold in red blood cells ([6]; rat): 65% | urinary excretion ([6]; rat): 10% | elimination in feces ([6]; single oral dose, within 21 days, rat): 79% | mutation effects (Salmonella): no m utation effects | findings in pregnant rats ([7]; 2.5 mg/kg/day): No such effects were found | findings in pregnant rats ([7]; 5 mg/kg/day): increase above controls in the inc idence of resorptions and a decrease in litter size | perinatal and postnatal study findings, high dose group ([7]; female rats, 8 mg/kg/day, last trimester and lactation): An increase in fetal resorption | general reproductive performance ([7]; female rats, oral 0.25, 0.75 and 3.0 mg/kg/day): no adverse effect on estrous cyclicity | litter size, birth weight or viability of the offspring ([7]; female rats, oral 0.5, 2.5 and 5 mg/kg/day, days 6-15 of pregnancy): no effect on litter size | mutation effects (BALB/3T3 cell): no m utation effects | teratogenic effects in pregnant mice ([8]; 5 mg/kg/day): no ter atogenic | embryotoxic or teratogenic effect in mice ([8]; oral 0.2, 1 and 5 mg/kg/day, days 6-15 of pregnancy): no embryotoxic or teratogenic effect | LD50 ([9]; Rat CD, F, PO): 330 mg/kg | acute oral LD50 ([9]; adult rats): 265 mg/kg | minimum lethal dose ([9]; rats): 30 mg/kg | lethality (LD50) in rats when given concomitantly with other drugs ([9]; warfarin at usual human daily dose, clonidine, propoxyphene at five times, others at ten or twenty times): potentiated | mean steady state blood-gold concentration ([10]; 6 mg auranofin/day, n=63 patients): 0.68 ± 0.45 µg/mL | labelled gold excreted by day 10 [10, 12]: 75% | labelled gold excreted in feces by day 10 [10, 12]: 70% | labelled gold excreted in the urine by day 10 [10, 12]: 5% | mean plasma half-life [10, 12]: 25.5 days | mean total body terminal half-life [10, 12]: 80.8 days | absorbed gold in erythrocytes / red cells [10]: approximately 40% | gold in blood associated with red cells [10]: ~40% | gold in blood associated with serum proteins [10]: 60% | gold in plasma / associated with serum proteins [10]: 60% | labelled gold excreted six months after single dose [10]: approximately 99.6% | labelled gold retained in the body six months after single dose [10]: 0.4% | time to steady state blood gold levels ([10]; clinical studies): about 3 months | time to steady state blood-gold concentrations ([10]; clinical studies): about three m onths | fraction of gold absorbed after oral administration ([10]; human, oral): ~25% | mean terminal body half-life ([10]; n = 5): 80 days | mean terminal plasma half-life of auranofin gold at steady state ([10]; n = 5): 26 days | labelled gold excreted by day 10 ([10]; single 6 mg oral dose): 77% | labelled gold excreted in the feces by day 10 ([10]; single 6 mg oral dose): 73% | labelled gold excreted in the urine by day 10 ([10]; single 6 mg oral dose): 4% | mean plasma terminal half-life ([10]; single 6 mg oral dose): 17 days | mean total body terminal half-life ([10]; single 6 mg oral dose): 58 days | absorbed gold excreted in urine ([10]; single dose): About 60% | administered dose excreted in urine ([10]; single dose): 15% | IC50 (Hs 919.T.): 5.38 ± 0.89 µM | chemotaxis [11]: inhibited | ADCC of human lymphocytes (human lymphocytes): reduced | ovalbumin antigen-induced release of histamine (rat lung): inhibition
